Read-outs that look alike come from different tables or passages of the source. Bridge positions count the residues as written; N and C are the ends. Square brackets hold non-standard residues; d marks the D form. Peptide text beside a SMILES is read from it. hArg = N=C(N)NCCCC[C@H](N)C(=O)O
Assays:
PCSK9 [1] = target: T1, PCSK9 (Homo sapiens, UniProt Q8NBP7); test: PCSK9/EGF(A) TR-FRET binding assay
PCSK9Δhelix [2] = target: T2, PCSK9Δhelix (Homo sapiens, UniProt Q8NBP7); test: PCSK9Δhelix/Ab20 TR-FRET binding assay
T2 construct: Human PCSK9 construct M1-Q692 with an engineered TEV site (residue deletion Y166, R167); made in house; host or cells: CHO

His-EGF(A)-Fc = His-EGF(A)-Fc TR-FRET counterscreen; details: TR-FRET counterscreen; Table 8E, additional compounds
PCSK9 [3] = target: T1, PCSK9; test: PCSK9/LDLR-Fc TR-FRET assay (LDLR assay); type: binding; details: Table 11, LDLR-Fc, average ±S.D. of three experiments
Method: In black 1536-well assay plates (MaKO, Aurora® Microplates, Whitefish, Mont.), 40 nL of peptide in DMSO were preincubated with 2 μL His-tagged PCSK9 plus anti-His-allophycocyanin in assay buffer (50 mM Tris-HCl, pH 7.5, 150 mM NaCl, 2 mM CaCl2, 0.01% Tween®-20, 0.1% bovine gamma globulins, and protease inhibitor cocktail) for 30 min. Then 2 μL of Fc-tagged ligand and anti-Fc-europium in assay buffer were added and allowed to incubate for 2 h. The PCSK9 and ligand conditions for each assay are as follows: 10 nM C-terminal (His)8-tagged PCSK9 (“(His)8” disclosed as SEQ ID NO: 304) and 12 nM EGF(A)-Fc for the EGF(A) assay, 10 nM C-terminal (His)8-tagged PCSK9 (“(His)8” disclosed as SEQ ID NO: 304) and 2.5 nM LDLR-Fc for the LDLR assay, 1.25 nM C-terminal (His)8-tagged PCSK9Δhelix (“(His)8” disclosed as SEQ ID NO: 304) and 0.75 nM Ab20 for the Ab20 assay, and 2 nM His-EGF(A)-Fc alone for the counterscreen. In all assays, anti-His-allophycocyanin and anti-Fc-europium were used at 20 nM and 2 nM, respectively. Fluorescence was measured with excitation at 340 nm and emission at 671 nm and 618 nm. The TR-FRET ratio was calculated as fluorescence at 671 nm/fluorescence at 618 nm. The ratios were normalized to controls and plotted against peptide concentration to determine IC50 values (Screener Analyzer, Genedata, Basel, CH). The peptides were evaluated in three separate experiments per assay with 10-point titrations and n=2 per concentration. The values presented are the average ±S.D. of three independent experiments.

PCSK9 [4] = target: T1, PCSK9; test: Phage competition ELISA; type: binding
Method: The sequences of selected clones were fused to the N-terminus of M13 major coat protein (p8) using Kunkel mutagenesis method (Kunkel et al., Methods Enzymol 154, 367-82). The resulting construct was transformed to E. Coli. XL1 blue, single colony was grown in 1 mL 2YT supplemented with 50 μg/mL carbenicillin, 10 μg/mL Tetracycline and M13 KO7 helper phage at 37° C. for 2 h, Kanamycin was added to final concentration of 25 μg/mL, growth was continued at 37° C. for 6 h. The culture was transferred to 30 mL 2YT supplemented with 50 μg/mL carbenicillin and 25 μg/mL kanamycin and grown at 37° C. overnight. The next day, the phage was harvested and purified using the standard protocol (Tonikian et al. Nat Protoc. 2007; 2(6):1368-86). The serially diluted phage solution was applied to the biotinylated PCSK9 and biotinylated PCSK9Δhelix that had been immobilized for 15 min on a 384-well MaxiSorp ImmunoPlate previously coated with 5 μg/mL NeutrAvidin and blocked with Block buffer. The plate was incubated at 4° C. for 1 h, washed 10 times with PT buffer (PBS, 0.05% Tween® 20). The bound phage was detected with anti-M13-HRP and the ELISA signal was read at OD450 nm. The background was ELISA signal that the phage directly bound to NeutrAvidin-coated plate. The data was plotted and the curve fitted with KaleidaGraph. Sub-saturating phage concentration that gave 80% of maximum binding signal was determined by the binding curve.
IC50 measurements were performed by mixing a fixed sub-saturating concentration of peptide-displaying phage with a serial dilution of synthetic peptides in PBT buffer. The mixture was added to plates coated with PCSK9 and PCSK9Δhelix and incubated for 1 h at room temperature. The plates were then washed 10 times with PBT buffer and the bound phage was detected by anti-M13-HRP. The data was plotted, curve fitted and IC50 derived by use of KaleidaGraph. All measurements were repeated 3 times independently.

PCSK9Δhelix [5] = target: T2, PCSK9Δhelix; test: SPR affinity measurements of peptide binding (Example 8)
Method: A Biacore™ T100 or Biacore™ 8K was adjusted to 20° C. The system was primed into assay buffer which consisted of 25 mM HEPES, pH 7.5, 0.15 M NaCl, 0.005% (v/v) Tween® 20, 0.2 mM tris(2-carboxyethyl)phosphine and optionally contained 0.1% (w/v) carboxymethylated dextran (average MW 10 kDa) and 0.2% (w/v) PEG (average MW 3450 Da) in order to reduce potential non-specific binding. Peptides were assayed by capturing fresh PCSK9 or PCSK9Δhelix after each binding regeneration cycle by exploiting a histidine tag and an NTA-sensor chip. The surface was charged with (His)8-tagged PCSK9 (approximately 800 RU captured). […] Compound 19 and Compound 20 were assayed in six serial two-fold dilutions from 100 nM to 3.1 nM. All peptides were analyzed in duplicate by serial injection (50 μL/min for 1 min) of peptide dilution from low to high concentration. The surface was then stripped of target by injecting 0.5 M EDTA, pH 8.0. This sequence was repeated for each peptide binding cycle and blank control cycles.
All SPR data was recorded in duplicate for five, or more serial dilutions, except for the two fusion peptides, which produced extremely low fitting error. Multicycle data (i.e. separate curves for each concentration) and single cycle data (i.e. single curve with serial injection of each concentration) were double referenced and fitted to an interaction model using BIAevaluation software. Peptide binding to PCSK9 produced deviations from a simple 1:1 binding interaction model that required application of a two-state model for determination of Kd while interactions with PCSK9Δhelix conformed well to simple 1:1 binding. Kinetic curvature was poorly defined for rapidly dissociating peptides and in these cases Kd was estimated from a steady-state dose response plot. Kd values were reported with associated standard error, a measure of confidence in that parameter value.

[6] = TR-FRET, Table 8E, additional compounds, read-out: PCSK9/EGF(A) IC50
[7] = Table 11, average ±S.D. of three experiments, read-out: EGF(A) IC50
[8] = TR-FRET, Table 8E, additional compounds, read-out: PCSK9Δhelix/Ab20 IC50
[9] = Table 11, average ±S.D. of three experiments, read-out: Ab20 IC50

| Compound | IC50 (PCSK9 [1]; [6]) [µM] | IC50 (PCSK9 [1]; [7]) [µM] | IC50 (PCSK9Δhelix [2]; [8]) [µM] | IC50 (PCSK9Δhelix [2]; [9]) [µM] | IC50 (His-EGF(A)-Fc) [µM] | IC50 (PCSK9 [3]) [µM] | lower inhibitory activity versus Compound 229 (PCSK9 [1]; Table 11) | competition with binding of phage-displayed Pep2-8 to PCSK9 (PCSK9 [4]) | Kd (PCSK9Δhelix [5]; Table 10, binding to PCSK9Δhelix) [µM] | improvement of binding affinity by homo-arginine substitution (PCSK9Δhelix [5]; Table 10, versus Compound 53) [fold] |
| --- | --- | --- | --- | --- | --- | --- | --- | --- | --- | --- |
| CC[C@H](C)[C@H](NC(=O)[C@H](CCCCNC(=N)N)NC(=O)[C@@H](NC(=O)[C@H](CC(C)C)NC(=O)[C@H](CC(N)=O)NC(=O)[C@H](Cc1c[nH]c2ccccc12)NC(=O)CNC(=O)[C@@H]1CCCN1C(=O)[C@H](Cc1ccc(O)cc1)NC(=O)[C@H](CO)NC(=O)[C@H](CCC(=O)O)NC(C)=O)C(C)C)C(=O)NCC(=O)N[C@@H](CC(C)C)C(=O)N[C@@H](CC(C)C)C(=O)N[C@@H](CCCNC(=N)N)C(N)=O [Compound 231] (Ac-ESYPGWNLV[hArg]IGLLR-NH2) | 1.6 | 15.8 ± 0.1 | 17 | 1.49 ± 0.1 | ≥ 50 | > 50 |  |  |  |  |
| CC[C@H](C)[C@H](NC(=O)[C@H](CCCCNC(=N)N)NC(=O)[C@@H](NC(=O)[C@H](CC(C)C)NC(=O)[C@H](CC(N)=O)NC(=O)[C@H](Cc1c[nH]c2ccccc12)NC(=O)CNC(=O)[C@@H]1CCCN1C(=O)[C@H](Cc1ccc(O)cc1)NC(=O)[C@H](CO)NC(=O)[C@H](CC(=O)O)NC(C)=O)C(C)C)C(=O)NCC(=O)N[C@@H](CC(C)C)C(=O)N[C@@H](CC(C)C)C(=O)N[C@@H](CCCNC(=N)N)C(N)=O [Compound 230] (Ac-DSYPGWNLV[hArg]IGLLR-NH2) | 2.3 | 24.2 ± 0.8 | 24 | 2.42 ± 0.2 | ≥ 50 | > 50 |  |  |  |  |
| CC[C@H](C)[C@H](NC(=O)[C@H](CCCCNC(=N)N)NC(=O)[C@@H](NC(=O)[C@H](CC(C)C)NC(=O)[C@H](CC(N)=O)NC(=O)[C@H](Cc1c[nH]c2ccccc12)NC(=O)CNC(=O)[C@@H]1CCCN1C(=O)[C@H](Cc1ccccc1)NC(=O)[C@H](CO)NC(=O)[C@H](CCC(=O)O)NC(C)=O)C(C)C)C(=O)NCC(=O)N[C@@H](CC(C)C)C(=O)N[C@@H](CC(C)C)C(=O)N[C@@H](CCCNC(=N)N)C(N)=O [Compound 227] (Ac-ESFPGWNLV[hArg]IGLLR-NH2) | 2.5 | 23.2 ± 0.3 | 24 | 2.51 ± 0.11 | ≥ 50 | > 50 | approximately 3 fold |  |  |  |
| CC[C@H](C)[C@@H]1NC(=O)[C@H](CCCNC(=N)N)NC(=O)[C@H](CCC(N)=O)NC(=O)[C@H](CC(C)C)NC(=O)[C@H](CC(N)=O)NC(=O)[C@H](Cc2c[nH]c3ccccc23)NC(=O)[C@@H]2CCCN2C(=O)[C@H](CC(C)C)NC(=O)[C@H](CCCNC(=N)N)NC(=O)[C@@H](NC(=O)CNC(=O)[C@@H](N)CO)CSSC[C@@H](C(N)=O)NC(=O)[C@@H]2CCCN2C(=O)[C@H](CC(C)C)NC(=O)CNC1=O [Compound K9gvpep4] (H-SGCRLPWNLQRIGLPC-NH2; disulfide 3-16) |  |  |  |  |  |  |  | did not compete |  |  |
| CC[C@H](C)[C@@H]1NC(=O)[C@H](CCCNC(=N)N)NC(=O)[C@H](CCC(N)=O)NC(=O)[C@H](CC(C)C)NC(=O)[C@H](CC(N)=O)NC(=O)[C@H](Cc2c[nH]c3ccccc23)NC(=O)[C@@H]2CCCN2C(=O)[C@H]([C@@H](C)CC)NC(=O)[C@H](Cc2ccccc2)NC(=O)[C@@H](NC(=O)CNC(=O)[C@@H](N)CO)CSSC[C@@H](C(N)=O)NC(=O)[C@H](CC(C)C)NC(=O)[C@H](CC(C)C)NC(=O)CNC1=O [Compound K9gvpep1] (H-SGCFIPWNLQRIGLLC-NH2; disulfide 3-16) |  |  |  |  |  |  |  | did not compete |  |  |
| CC[C@H](C)[C@H](NC(=O)[C@H](CCCCNC(=N)N)NC(=O)[C@@H](NC(=O)[C@H](CC(C)C)NC(=O)[C@H](CC(N)=O)NC(=O)[C@H](Cc1c[nH]c2ccccc12)NC(C)=O)C(C)C)C(=O)NCC(=O)N[C@@H](CC(C)C)C(=O)N[C@@H](CC(C)C)C(=O)N[C@@H](CCCNC(=N)N)C(N)=O [Compound 192, Ac-WNLV(homoR)IGLLR-NH2] (Ac-WNLV[hArg]IGLLR-NH2) | ≥ 50 | > 50 | 5.3 | 5.55 ± 0.36 | ≥ 50 | > 50 |  |  | 1 | 14 |
